Reference: ChEMBL document CHEMBL4808221, “Design and Synthesis of Novel c-di-GMP G-Quadruplex Inducers as Bacterial Biofilm Inhibitors” (J Med Chem, 2021)
Calls of active or inactive are those of the source. The rule behind the calls is not given here.

How the values were obtained:
[1] = Cytotoxicity against human AC16 cells assessed as cell survival at 1.25 uM incubated for 24 hrs by MTT assay relative to control; type: cell-based, AC16 [Human hybrid]; conditions: read-out: Survival
Pseudomonas aeruginosa [2] = assay: Effect on swarming capacity of Pseudomonas aeruginosa PAO1 harboring wspF gene mutation assessed as increase in motility at 5 uM incubated for 14 hrs relative to control; type: functional
[3] = Cytotoxicity against human AC16 cells assessed as cell survival at 0.15625 to 10 uM incubated for 24 hrs by MTT assay relative to control; type: cell-based, AC16 [Human hybrid]; conditions: dose 0.15625-10 µM, read-out: Survival
DNA = assay: Toxicity assessed as induction of Escherichia coli pBR322 DNA intercalation activity at 10 uM incubated for 10 mins by polyacrylamide gel electrophoresis method
Bacteria [4] = assay: Effect on WspR (unknown origin) assessed as reduction in c-di-GMP level at 1.25 to 5 uM measured by HPLC method; conditions: dose 1.25-5 µM
c-di-GMP G-quadruplex [5] = assay: Induction of c-di-GMP G-quadruplex formation in Pseudomonas aeruginosa PAO1 harboring wspF gene mutation assessed as reduction in cdrA expression at 1.25 uM by RT-PCR method
Quadruplex DNA = assay: Induction of c-di-GMP G-quadruplex formation (unknown origin) measured at 300 nanometer by CD spectroscopy; type: nucleic-acid assay
Pseudomonas aeruginosa [6] = assay: Effect on extracellular polysaccharide in Pseudomonas aeruginosa PAO1 harboring wspF gene mutation assessed as reduction in EPS production at 1.25 uM by congo red binding assay relative to control; type: functional; parameters: scale not given: the % may be the effect or the level left
[7] = Binding affinity to d-NTP (unknown origin) at 5 uM by fluorescence method
c-di-GMP G-quadruplex [8] = assay: Induction of c-di-GMP G-quadruplex formation in Pseudomonas aeruginosa PAO1 harboring wspF gene mutation assessed as induction of flgA expression at 1.25 uM incubated for 15 hrs by transcriptome analysis
Pseudomonas aeruginosa [9] = assay: Effect on swarming capacity of Pseudomonas aeruginosa PAO1 harboring wspF gene mutation assessed as increase in motility at 3.75 uM incubated for 14 hrs relative to control; type: functional
c-di-GMP G-quadruplex [10] = assay: Induction of c-di-GMP G-quadruplex formation in Pseudomonas aeruginosa PAO1 harboring wspF gene mutation assessed as inhibition of biofilm formation incubated for 20 hrs by crystal violet staining assay relative to control; type: nucleic-acid assay
Pseudomonas aeruginosa [11] = assay: Effect on extracellular polysaccharide in Pseudomonas aeruginosa PAO1 harboring wspF gene mutation assessed as reduction in EPS production at 0.15625 to 0.625 uM by congo red binding assay; type: functional, organism-based; conditions: dose 0.15625-0.625 µM
[12] = Binding affinity to c-di-GMP (unknown origin) at 5 uM using varying level of c-di-GMP by fluorescence method
c-di-GMP G-quadruplex [13] = assay: Induction of c-di-GMP G-quadruplex formation in Pseudomonas aeruginosa PAO1 harboring wspF gene mutation assessed as induction of fleN expression at 1.25 uM incubated for 15 hrs by transcriptome analysis
Pseudomonas aeruginosa [14] = assay: Antibacterial activity against Pseudomonas aeruginosa PAO1 harboring wspF gene mutation assessed as reduction in bacterial growth at 0.15625 to 2.5 uM by confocal microscopic method; type: functional, organism-based; conditions: dose 0.15625-2.5 µM
c-di-GMP G-quadruplex [15] = assay: Downregulation of c-di-GMP level in Pseudomonas aeruginosa PAO1 harboring wspF gene mutation assessed as reduction in Alg44 expression at 1.25 uM incubated for 15 hrs by transcriptome analysis
c-di-GMP G-quadruplex [16] = assay: Induction of c-di-GMP G-quadruplex formation in Pseudomonas aeruginosa PAO1 harboring wspF gene mutation assessed as induction of flhA expression at 1.25 uM incubated for 15 hrs by transcriptome analysis
c-di-GMP G-quadruplex [17] = assay: Induction of c-di-GMP G-quadruplex formation in Pseudomonas aeruginosa PAO1 harboring wspF gene mutation assessed as reduction in pelB expression at 1.25 uM by RT-PCR method
[18] = Binding affinity to guanosine monophosphate (unknown origin) at 5 uM by fluorescence method
c-di-GMP G-quadruplex [19] = assay: Downregulation of c-di-GMP level in Pseudomonas aeruginosa PAO1 harboring wspF gene mutation assessed as induction of tpbA expression at 1.25 uM incubated for 15 hrs by transcriptome analysis
c-di-GMP G-quadruplex [20] = assay: Induction of c-di-GMP G-quadruplex formation in Pseudomonas aeruginosa […] assessed as inhibition of biofilm formation at 0.15625 to 1.25 uM by confocal microscopic method; type: nucleic-acid assay; conditions: PAO1, dose 0.15625-1.25 µM
[21] = Binding affinity to r-NTP (unknown origin) at 5 uM by fluorescence method
c-di-GMP G-quadruplex [22] = assay: Induction of c-di-GMP G-quadruplex formation in Pseudomonas aeruginosa PAO1 harboring wspF gene mutation assessed as reduction in pslE expression at 1.25 uM by RT-PCR method
Bacteria [23] = assay: Effect on RocR (unknown origin) assessed as induction of c-di-GMP degradation at 1.25 to 5 uM measured by HPLC method; conditions: dose 1.25-5 µM
c-di-GMP G-quadruplex [24] = assay: Induction of c-di-GMP G-quadruplex formation in Pseudomonas aeruginosa PAO1 harboring wspF gene mutation assessed as induction of flhF expression at 1.25 uM incubated for 15 hrs by transcriptome analysis
Pseudomonas aeruginosa [25] = assay: Antibacterial activity against Pseudomonas aeruginosa PAO1 harboring wspF gene mutation assessed as reduction in bacterial growth at 512 uM by crystal violet staining assay relative to control; type: functional, organism-based
c-di-GMP G-quadruplex [26] = assay: Induction of c-di-GMP G-quadruplex formation in Pseudomonas aeruginosa PAO1 harboring wspF gene mutation assessed as inhibition of biofilm formation at 1.25 uM incubated for 20 hrs by crystal violet staining assay relative to control; type: nucleic-acid assay
c-di-GMP G-quadruplex [27] = assay: Induction of c-di-GMP G-quadruplex formation in Pseudomonas aeruginosa PAO1 harboring wspF gene mutation assessed as induction of flhA expression at 1.25 uM by RT-PCR method
c-di-GMP G-quadruplex [28] = assay: Induction of c-di-GMP G-quadruplex formation in Pseudomonas aeruginosa PAO1 harboring wspF gene mutation assessed as inhibition of biofilm formation incubated for 24 hrs by confocal microscopic method; type: nucleic-acid assay
c-di-GMP G-quadruplex [29] = assay: Induction of c-di-GMP G-quadruplex formation in Pseudomonas aeruginosa PAO1 harboring wspF gene mutation assessed as induction of fleN expression at 1.25 uM by RT-PCR method
c-di-GMP G-quadruplex [30] = assay: Induction of c-di-GMP G-quadruplex formation in Pseudomonas aeruginosa PAO1 harboring wspF gene mutation and LacZ reporter gene assessed as reduction in PelA expression by measuring decrease in lacZ activity at 0.3125 to 1.25 uM incubated for 4 hrs by absorbance method; conditions: dose 0.3125-1.25 µM
c-di-GMP G-quadruplex [31] = assay: Induction of c-di-GMP G-quadruplex formation in Pseudomonas aeruginosa PAO1 harboring wspF gene mutation assessed as suppression of cdrA expression at 1.25 uM incubated for 15 hrs by transcriptome analysis
Pseudomonas aeruginosa [32] = assay: Antibacterial activity against Pseudomonas aeruginosa PAO1 assessed as reduction in biofilm formation at 0.15625 to 1.25 uM by crystal violet staining method; type: functional, organism-based; conditions: dose 0.15625-1.25 µM
Pseudomonas aeruginosa [33] = assay: Effect on swarming capacity of Pseudomonas aeruginosa PAO1 harboring wspF gene mutation assessed as increase in motility at 2.5 uM incubated for 14 hrs relative to control; type: functional
c-di-GMP G-quadruplex [34] = assay: Induction of c-di-GMP G-quadruplex formation in Pseudomonas aeruginosa PAO1 harboring wspF gene mutation assessed as induction of fliD expression at 1.25 uM incubated for 15 hrs by transcriptome analysis

COc1cc(/C=C/c2sc3ccccc3[n+]2C)ccc1O.[I-] gave a viability at 24 h, 1.25 µM [1] of 96%, an Activity (Pseudomonas aeruginosa [2]) of 77% and a viability at 24 h, up to 10 µM [3] greater than 90%. The Activity (DNA) was “Non-Toxic”, the Activity (Bacteria [4]) was “inactive” and the Activity (c-di-GMP G-quadruplex [5]) was “Active”. The Activity (Quadruplex DNA) was “Active”, the Activity (Pseudomonas aeruginosa [6]) was 30% and the Activity [7] was “Active”. For the same compound, the Activity (c-di-GMP G-quadruplex [8]) was “Active”, the Activity (Pseudomonas aeruginosa [9]) was 34% and the IC50 (c-di-GMP G-quadruplex [10]) was 880 nM. For the same compound, the Activity (Pseudomonas aeruginosa [11]) was “Active”, the Activity [12] was “Active” and the Activity (c-di-GMP G-quadruplex [13]) was “Active”. The Activity (Pseudomonas aeruginosa [14]) was “inactive”, the Activity (c-di-GMP G-quadruplex [15]) was “Active” and the Activity (c-di-GMP G-quadruplex [16]) was “Active”. For the same compound, the Activity (c-di-GMP G-quadruplex [17]) was “Active”, the Activity [18] was “Active” and the Activity (c-di-GMP G-quadruplex [19]) was “Active”. The Activity (c-di-GMP G-quadruplex [20]) was “Active”, the Activity [21] was “Active” and the Activity (c-di-GMP G-quadruplex [22]) was “Active”. The Activity (Bacteria [23]) was “inactive”, the Activity (c-di-GMP G-quadruplex [24]) was “Active” and the Activity (Pseudomonas aeruginosa [25]) was “inactive”. For the same compound, the inhibition (c-di-GMP G-quadruplex [26]) was 62.2%, the Activity (c-di-GMP G-quadruplex [27]) was “Active” and the Activity (c-di-GMP G-quadruplex [28]) was “Dose-Dependent Effect”. For the same compound, the Activity (c-di-GMP G-quadruplex [29]) was “Active”, the Activity (c-di-GMP G-quadruplex [30]) was “Active” and the Activity (c-di-GMP G-quadruplex [31]) was “Active”. For the same compound, the Activity (Pseudomonas aeruginosa [32]) was “Active”, the Activity (Pseudomonas aeruginosa [33]) was 15% and the Activity (c-di-GMP G-quadruplex [34]) was “Active”.
